From patent US20100076059A1, “METHOD OF EVALUATING COMPOUND EFFICACIOUS IN TREATING OBESITY BY USING Slc25a10” (priority 2003, published 2010)
Where no end group is shown, it is not given here.

What was measured:
[1] = system: HEK293 cells; assay: DiOC6 staining of mitochondrial proton gradient in HEK293 cells; assay type: cell-based; settings: DiOC6-stained HEK293 cells
Protocol: First, HEK293 cells were seeded in a 6-well plate at a density of 2×10^6 cells/well. After 24 hours, S1c25a10 gene cloned in pcDNA 3.1 vector was transfected into the cells using Lipofectamine 2000. As a negative control there were used cells having only the vector transfected, and as positive controls there were used cells having mouse UCP1 transfected and cells having human UCP3 transfected.
After 48 hours from transfection of the gene, the mitochondrial gradient sensitivity-indicating agent DiOC6 (3-3′-dihexyloxacarbocyanine iodide) was used for staining. The staining was performed by treating the cells with 0.3 μM DiOC6 for 20 minutes followed by rinsing twice with PBS. DiOC6 binds to mitochondria in greater amount as the proton gradient increases, emitting strong fluorescence. On the other hand, it binds to mitochondria in lower amount as the proton gradient decreases, resulting in weaker fluorescent intensity.
FIG. 1(a) is a confocal micrograph showing DiOC6-stained HEK293 cells treated with CCCP (carbonyl cyanide m-chlorophenylhydrazone) which uncouples the intracellular mitochondrial proton gradient, and FIG. 1(b) is a photograph of HEK293 cells without CCCP treatment. With the untreated HEK293 cells, the intracellular mitochondria are clearly stained by outlining dots. […] It was thus confirmed that the mitochondria had been stained in a proton gradient-specific manner. […]

[2] = system: S1c25a10 gene; assay: S1c25a10 expression in white adipocytes (WAT) of mouse models, U74A / 25K1.8 chip; assay type: in vivo; settings: non-treated C57BL/6N mice defined as 1
Protocol: (§1) A mouse model of obesity induced by administration of an NPY Y5 agonist was prepared in the following manner. Nine- to twelve-week-old male mice (C57BL/6J: Clea Japan) were raised under conditions with a room temperature of 23±2° C. and a humidity of 55±15%, with one mouse in each plastic cage. The mice were raised under a 12 hour lightness/darkness cycle, with lights on at 7:00 am and lights off at 7:00 pm. The mice were also given free access to feed (CE-2 (25.4 wt % protein, 50.3 wt % carbohydrate, 4.4 wt % lipid), Clea Japan) and water.
The mice were anesthetized with 80 mg/kg sodium pentobarbital (Dynabot) and a 28-gauge sterilized brain infusion cannula (Alzet Co.) was stereotactically implanted in the right cerebral ventricle. The cannula was positioned 0.4 mm behind and 0.8 mm to the side of the bregma, and to a depth of 2 mm, and was anchored vertically with respect to the cranial bone using dental cement. A polyvinyl chloride tube was used to connect the cannula to an osmotic pump (Model #2002: Alzet Co.) filled with 10 mM phosphate buffer containing 0.05% bovine serum albumin (BSA). A solution of D-Try^34 NPY in 10 mM PBS (containing 0.05% BSA) (prepared for 5 μg/day) was filled into the pump, and the pump was implanted subcutaneously at the back of the mouse for continuous infusion. An antibiotic (50 mg/kg cefamedine, product of Fujisawa Pharmaceutical Co., Ltd.) was also subcutaneously injected.
The mice were divided into three groups: a normally-fed group given infusion of the solvent alone (vehicle group); an obesity-induced group given infusion of D-Try^34 NPY (NYP Y5 agonist) with an increased food amount (ad lib fed group); and a group given infusion of D-Try^34 NPY but with food restricted to the same amount as the vehicle group (pair-fed group).
as §1, with “MCH (melanin-concentrating hormone)” for “an NPY Y5 agonist”, “Thirteen-week-old” for “Nine- to twelve-week-old”, “food” for “feed”, “water. […]” for “water.”
The mouse models prepared in Preparation Examples 1-4 were used for measurement of S1c25a10 expression in white adipocytes (WAT). The expression levels were measured by treating RNA extracted from white adipocytes from each mouse model using a mouse U74A chip (Affymetrix) and a mouse 25K1.8 chip (Rossetta).

[3] = system: human S1c25a10 gene; assay: Suppression of human S1c25a10 expression by siRNA transfection (RNAi); assay type: cell-based; settings: siRNA to human S1c25a10 gene
Source text: (§2) First, a silencer siRNA construction kit (Ambion Inc.) was used to synthesize siRNA. Next, in order to determine the optimum sequences for human or mouse S1c25a10, twelve different sequences were examined based on suppression of S1c25a10 expression. FIG. 6(a) and (b) show the relative expression levels of S1c25a10 gene in each of the siRNA-transfected cells.
The sequence of each siRNA is shown below. The “Position” indicates the corresponding nucleic acid position of the human S1c25a10 gene (NM_012140) for each siRNA.
Next, siRNA-transfected cells were prepared. For siRNA transfection, the cells were seeded on a 6-well plate at a density of 2×10^4 cells/well. After 24 hours, the siRNA (H4 or H10) was transfected into the cells using Oligofectamine (Invitrogen). On the 2nd day after transfection, the cells were harvested and RNA was prepared using RNeasy (Qiagen). cDNA was prepared from the RNA by quantitative RT-PCR (Applied Biosystems), for quantitation of the S1c25a10 and ACC1 expression levels.

[4] = system: mouse S1c25a10 gene; assay: Suppression of mouse S1c25a10 expression by siRNA transfection (RNAi); assay type: cell-based; settings: siRNA to mouse S1c25a10 gene
Source text: as §2
The nucleotide sequences of siRNA corresponding to the mouse S1c25a10 gene (NM_013770) are also shown below.

[5] = administered mice, ad lib fed (FF)

Q: Which fluorescent intensity ([1]; confocal micrograph, versus untreated cells) does the source give for `N#CC(C#N)=NNc1cccc(Cl)c1` [CCCP, carbonyl cyanide m-chlorophenylhydrazone] here?
A: significantly reduced

Q: And the Mean fluorescent intensity ([1]; flow cytometer)?
A: 5.4

Q: What does the source list for D-Try^34 NPY?
A: Slc25a10 expression [2, 5]: 3.0; Slc25a10 expression ([2]; pair feeding (PF) mice): 1.9

Q: “H4: siRNA to human S1c25a10 gene, Position 556, SEQ ID NOs: 9 and 10 (chain 1 AAACAGTCTCCTGAGACCCTCCCTGTCTC; chain 2 AAGAGGGTCTCAGGAGACTGTCCTGTCTC; listed as DNA, chemistry not given here)” was tested. Which “S1c25a10 gene expression (inhibiting effect)” value [3] did it give?
A: particularly powerful inhibiting effects

Q: And the “S1c25a10 gene expression (inhibiting effect)” value ([3]; listed as siRNA consisting of nucleic acids of SEQ ID NOs: 9 and 10)?
A: powerfully inhibit S1c25a10 expression

Q: And the “S1c25a10 gene expression (inhibiting effect)” value ([3]; listed as siRNA consisting of the nucleic acids of SEQ ID NOs: 9 and 10)?
A: significantly reduce expression

Q: For “M8: siRNA to mouse S1c25a10 gene, Position 1159, SEQ ID NOs: 41 and 42 (chain 1 AAGTGGCACCTCTGCCCTACTCCTGTCTC; chain 2 AAAGTAGGGCAGAGGTGCCACCCTGTCTC; listed as DNA, chemistry not given here)”, which “S1c25a10 gene expression (inhibiting effect)” value [4] is on record?
A: particularly powerful inhibiting effects

Q: What about the “S1c25a10 gene expression (inhibiting effect)” value ([4]; listed as siRNA consisting of nucleic acids of SEQ ID NOs: 41 and 42) of the same compound?
A: powerfully inhibit S1c25a10 expression

Q: What about the “S1c25a10 gene expression (inhibiting effect)” value ([4]; listed as siRNA consisting of the nucleic acids of SEQ ID NOs: 41 and 42) of the same compound?
A: significantly reduce expression

Q: What does the source list for “melanin-concentrating hormone (DFDMLRCMLGRVYRPCWQV; ends and bridges not checked; cysteine pairing not given here; UniProt P56942 147-165, looked up) [MCH, MCH infused i.c.v. to induce obesity in mice]”?
A: Slc25a10 expression [2, 5]: 1.7; Slc25a10 expression ([2]; pair feeding (PF) mice): 2.4
